Experimental data published in article PMC8038501, “Bioactivity-Guided Isolation of Phytochemicals from Vaccinium dunalianum Wight and Their Antioxidant and Enzyme Inhibitory Activities” (Molecules, 2021).
Marks after values point to notes of the source that are not given here.

Key:
[1] = biological target: T1, porcine pancreatic lipase (Sus scrofa, UniProt P00591); assay: pancreatic lipase inhibitory assay (p-nitrophenyl laurate substrate); assay type: biochemical; settings: mean ± SD, three replicates; read-out: Enzyme Inhibition IC50 Pancreatic Lipase (converted)
T1 construct: purchased Sigma-Aldrich (Shanghai, China)
T1 sequence (P00591 1-450): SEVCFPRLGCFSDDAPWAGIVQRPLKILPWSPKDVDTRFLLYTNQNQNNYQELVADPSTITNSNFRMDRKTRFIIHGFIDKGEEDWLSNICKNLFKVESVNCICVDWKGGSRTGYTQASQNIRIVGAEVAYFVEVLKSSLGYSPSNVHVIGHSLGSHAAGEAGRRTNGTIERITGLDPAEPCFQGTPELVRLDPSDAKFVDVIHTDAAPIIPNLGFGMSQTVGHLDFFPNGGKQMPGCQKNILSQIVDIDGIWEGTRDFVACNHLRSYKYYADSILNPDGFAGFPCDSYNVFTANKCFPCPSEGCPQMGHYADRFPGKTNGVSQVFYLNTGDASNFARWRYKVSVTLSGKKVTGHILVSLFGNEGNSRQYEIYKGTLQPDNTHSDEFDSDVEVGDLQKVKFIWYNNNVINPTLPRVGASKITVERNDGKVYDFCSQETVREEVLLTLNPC
Protocol: The pancreatic lipase inhibitory assay was conducted as previously described with some modifications. First, the porcine pancreatic lipase solution was centrifuged to collect the supernatant enzyme at 4000 g for 5 min. The substrate solution was prepared with p-nitrophenyl laurate dissolved in 5 mM sodium acetate (1:100 m/v) and Triton X-100 (1:100 v/v). The substrate solution was placed in boiling water for 2 min to fully dissolve, and then cooled down to room temperature for the enzymatic assay. The sample was dissolved in DMSO (<5% in the final reaction reagents) and diluted with 100 mM Tris-buffer (pH 8.2). Samples of 50, 100, 200, 400, 600, and 800 µg/mL were prepared. Orlistat was used as a positive control. In the enzymatic assay, the test samples (100 µL) were mixed with Tris buffer (400 µL), substrate solution (350 µL), and pancreatic lipase (150 µL). The mixture was then incubated at 37 °C for 2 h and centrifugated at 4000 g for 3 min. The absorbance of the reaction mixture was measured at 400 nm by using a SpectraMax M5 microplate reader. The percent inhibition of pancreatic lipase activity was calculated by Equation (1).

[2] = biological target: α-glucosidase (Saccharomyces cerevisiae, UniProt P53341); assay: α-glucosidase inhibitory assay (PNPG substrate); assay type: biochemical
Protocol: The α-glucosidase inhibitory assay was performed as previously described with slight modifications. A 50 µL sample (20, 50, 100, 200, 400, 600 µg/mL) solution was added to the mixture of the α-glucosidase solution, phosphate buffer (100 µL, pH 6.8), and 50 µL of 10 mM PNPG in a 96-well microplate. Subsequently, the reaction mixture was incubated for 15 min at 37 °C. Then, sodium carbonate (50 µL, 0.2 M) was added to terminate the reaction. A blank was prepared for each sample without enzyme solution to correct the background absorbance (control). The absorbance (A) of the reaction mixture was measured at 405 nm by using a SpectraMax M5 microplate reader (Molecular Devices, Sunnyvale, CA, USA). The inhibitory percentage was determined as follows:Inhibition (%) = [(Acontrol − Asample)/Acontrol] × 100(1)

[3] = cited from earlier work
[4] = DPPH free-radical scavenging assay; settings: for Antioxidant Activity DPPH: mean ± SD, three replicates
Protocol: The DPPH free radical scavenging activity was carried out by the method previously described. Briefly, 2 mL of DPPH solution (0.1 mmol/L) was mixed with 0.5 mL of sample solutions or Trolox solution (100 μg/mL in methanol). Then, the mixture was incubated for 30 min in the dark at room temperature. Absorbance of the mixture was measured at 517 nm using a SpectraMax M5 microplate reader. DPPH radical scavenging activity of each extract was expressed as nmol Trolox equivalent (TE) per mg of extract (nmol TE/mg extract).

[5] = ABTS radical scavenging assay; settings: for Antioxidant Activity ABTS: mean ± SD, three replicates
Protocol: The ABTS assay was performed according to the procedure described earlier. Briefly, 7 mM ABTS was added to 2.5 mM […] and the mixture was allowed to stand in the dark at room temperature for 16 h to obtain the ABTS radical solution. The ABTS solution was diluted with methanol with an absorbance of 0.70 ± 0.02 at 734 nm. After adding the 25 μL extract (100 μg/mL in methanol) to 200 μL ABTS solution, the absorbance was measured after 6 min at 734 nm by using a SpectraMax M5 microplate reader. Results were expressed as nmol Trolox equivalent (TE) per mg of extract (nmol TE/mg extract).

[6] = Ferric reducing/antioxidant power (FRAP) assay; settings: for Antioxidant Activity FRAP: mean ± SD, three replicates
Protocol: The FRAP assay was conducted according to the procedure reported with slight modifications. The FRAP reagent was freshly prepared with 300 mM acetate buffer (pH 3.6), 10 mM TPTZ (2,4,6-tripyridyl-s-triazine), and 20 mM FeCl3-6H2O (10:1:1, v/v)]. A 0.5 mL of each sample (100 μg/mL) was mixed with 4.5 mL freshly prepared FRAP reagent. Then, the reaction mixture was incubated at 37 °C in the dark for 10 min. The absorbance of the mixture was recorded at 593 nm against a blank that was prepared using distilled water. Trolox was used as a control. The FRAP values were expressed as nmol Trolox equivalent (TE) per mg of extract (nmol TE/mg extract).

[7] = tested on: ɑ-glucosidase; set-up: method as in PMID 28832228; settings: cited from earlier work

Sequence of α-glucosidase (P53341 whole entry): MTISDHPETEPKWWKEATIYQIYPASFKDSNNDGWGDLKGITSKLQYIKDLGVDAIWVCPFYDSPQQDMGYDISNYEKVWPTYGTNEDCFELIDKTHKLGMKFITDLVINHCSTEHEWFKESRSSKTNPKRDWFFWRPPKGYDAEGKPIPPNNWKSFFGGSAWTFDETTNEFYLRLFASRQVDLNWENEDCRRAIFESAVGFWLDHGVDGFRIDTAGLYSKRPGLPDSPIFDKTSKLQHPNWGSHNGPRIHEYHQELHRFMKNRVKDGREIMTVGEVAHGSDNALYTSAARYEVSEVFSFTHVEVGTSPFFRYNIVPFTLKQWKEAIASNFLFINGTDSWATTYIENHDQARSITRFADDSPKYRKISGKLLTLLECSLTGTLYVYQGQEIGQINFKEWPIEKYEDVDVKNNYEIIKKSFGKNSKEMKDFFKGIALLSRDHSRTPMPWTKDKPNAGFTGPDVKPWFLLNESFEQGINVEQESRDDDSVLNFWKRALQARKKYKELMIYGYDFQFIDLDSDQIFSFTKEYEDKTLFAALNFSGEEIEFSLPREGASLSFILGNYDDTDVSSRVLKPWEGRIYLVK

Row | Structure (SMILES) | IC50 [1] [µM] | α-glucosidase inhibition (in words) [2] | effect on antioxidant activity (reported) [3] | Antioxidant Activity DPPH [4] | Antioxidant Activity ABTS [5] | Antioxidant Activity FRAP [6] | ɑ-glucosidase inhibitory activities (reported) [7] | ABTS ([5]; unit in section 2.5) [nmol TE/g extract] | FRAP ([6]; unit in section 2.5) [nmol TE/g extract] | DPPH ([4]; unit in section 2.5) [nmol TE/g extract]
1 | O=C(/C=C/c1ccc(O)c(O)c1)OC[C@H]1O[C@@H](O)[C@H](O)[C@@H](O)[C@@H]1O [Compound 2, 6-O-E-Caffeoyl-D-glucopyranose] | 303 |  |  | 1.05 ± 0.11 ^h nmol Trolox equivalent/mg extract | 15.93 ± 1.65 ^ij nmol Trolox equivalent/mg extract | 0.84 ± 0.01 ^e,f nmol Trolox equivalent/mg extract |  |  |  | 
2 | COC(=O)/C=C/c1ccc(O)c(O)c1 [Compound 4, Caffeic acid methyl ester] | 1380 |  |  | 0.37 ± 0.01^d nmol Trolox equivalent/mg extract | 3.10 ± 1.07 ^b nmol Trolox equivalent/mg extract | 0.82 ± 0.01 ^e nmol Trolox equivalent/mg extract | good ɑ-glucosidase inhibitory activities |  |  | 
3 | CCOC(=O)/C=C/c1ccc(O)c(O)c1 [Compound 6, Caffeic acid ethyl ester] | 1240 | relatively weak inhibitory activity |  | 0.42 ± 0.03 ^e nmol Trolox equivalent/mg extract | 4.16 ± 0.25 ^b nmol Trolox equivalent/mg extract | 0.76 ± 0.01 ^d nmol Trolox equivalent/mg extract | good ɑ-glucosidase inhibitory activities |  |  | 
4 | O=c1c(O[C@@H]2O[C@H](CO)[C@@H](O)[C@H](O)[C@H]2O)c(-c2ccc(O)cc2)oc2cc(O)cc(O)c12 [Compound 9, Kaempferol-3-O-β-D-glucopyranoside] | 778 | relatively weak inhibitory activity | positive effect on antioxidant activity | 0.35 ± 0.01 ^cd nmol Trolox equivalent/mg extract | 6.38 ± 0.34 ^e nmol Trolox equivalent/mg extract |  |  |  |  | 
5 | O=C(O)c1ccc(O)cc1 [Compound 10, p-Hydroxybenzoic acid] | 2220 | relatively weak inhibitory activity |  | 1.12 ± 0.23 ^h nmol Trolox equivalent/mg extract |  | 0.87 ± 0.01 ^f nmol Trolox equivalent/mg extract |  |  |  | 

The next lines start with results.

Row | IC50 [1] [µM] | Structure (SMILES) | α-glucosidase inhibition (in words) [2] | effect on antioxidant activity (reported) [3] | Antioxidant Activity DPPH [4] | Antioxidant Activity ABTS [5] | Antioxidant Activity FRAP [6] | ɑ-glucosidase inhibitory activities (reported) [7] | ABTS ([5]; unit in section 2.5) [nmol TE/g extract] | FRAP ([6]; unit in section 2.5) [nmol TE/g extract] | DPPH ([4]; unit in section 2.5) [nmol TE/g extract]
6 | 759 | O=c1c(OC2O[C@H](CO)[C@@H](O)[C@@H]2O)c(-c2ccc(O)c(O)c2)oc2cc(O)cc(O)c12 (stereo in doubt) [Compound 5, Quercetin-3-O-arabinofuranoside] | relatively weak inhibitory activity | positive effect on antioxidant activity | 0.81 ± 0.17 ^h nmol Trolox equivalent/mg extract |  |  |  |  |  | 
7 | 1290 | OC[C@H]1O[C@@H](Oc2ccc(O)cc2)[C@H](O)[C@@H](O)[C@@H]1O [Compound 1, Arbutin] | relatively weak inhibitory activity |  | 0.45 ± 0.02 ^e nmol Trolox equivalent/mg extract | 8.38 ± 3.74 ^efg nmol Trolox equivalent/mg extract | 0.76 ± 0.01 ^d nmol Trolox equivalent/mg extract |  |  |  | 
8 | 1310 | O=C(O)/C=C/c1ccc(O)c(O)c1 [Compound 3, Caffeic acid] |  | positive effect on antioxidant activity | 0.39 ± 0.05 ^de nmol Trolox equivalent/mg extract | 3.86 ± 0.48 ^b nmol Trolox equivalent/mg extract | 0.85 ± 0.01 ^ef nmol Trolox equivalent/mg extract |  |  |  | 
9 | 225 | O=C(/C=C/c1ccc(O)c(O)c1)OC[C@H]1O[C@@H](Oc2ccc(O)cc2)[C@H](O)[C@@H](O)[C@@H]1O [Compound 7, 6′-O-Caffeoylarbutin] |  |  | 1.21 ± 0.43 ^c nmol Trolox equivalent/mg extract | 16.96 ± 0.95 ^j nmol Trolox equivalent/mg extract | 0.87 ± 0.01 ^f nmol Trolox equivalent/mg extract |  | 16.96 ± 0.95 | 0.87 ± 0.01 | 1.21 ± 0.43
10 | 741 | O=C(/C=C/c1ccc(O)cc1)OC[C@H]1O[C@@H](Oc2ccc(O)cc2)[C@H](O)[C@@H](O)[C@@H]1O [Compound 8, Robustaside A] | relatively weak inhibitory activity |  | 0.41 ± 0.06 ^e nmol Trolox equivalent/mg extract | 4.71 ± 0.23 ^c nmol Trolox equivalent/mg extract | 0.49 ± 0.01 ^b nmol Trolox equivalent/mg extract |  |  |  | 
